Source: patent US20040106148A1, “Polypeptides” (priority 2000, published 2004)
Each block holds one molecule with its values, some of them ahead of it.

Legend:
[1] = tested on: 6 of the PH domains identified (GST fusions); experiment: Phosphoinositide binding of PH domains (protein-lipid overlay or surface plasmon resonance); conditions: data not shown
Experimental: Protein-Lipid overlay. To assess the phosphoinositide binding properties of each PH domain, a protein-lipid overlay assay was performed using the GST fusion proteins as described previously. Briefly, 1 μl of lipid solution containing 1-100 pmol of phospholipids dissolved in a mixture of choroform:methanol:water (1:2:0.8) was spotted onto Hybond-C extra membrane and allowed to dry at room temperature for 1 h. The membrane was blocked in 3% (by mass) fatty acid-free BSA in TBST (50 mM Tris/HCl pH 7.5, 150 mM NaCl and 0.1% Tween-20 (by vol) for lh. The membrane was then incubated overnight at 4° C. with gentle agitation in the same solution containing 0.2 μg/ml of the indicated GST fusion protein. The membranes were washed 6 times over 30 min in TBST and then incubated for 1 h with 1/1000 dilution of anti-GST monoclonal antibody (Sigma). The membranes were washed as before, then incubated for 1 h with 1/5000 dilution of anti-mouse-HRP conjugate (Pierce). Finally, the membranes were washed 12 times over 1 h in TBST and the GST-fusion protein bound to the membrane by virtue of its interaction with phospholipid was detected by enhanced chemiluminescence. […]
We studied the specificity and affinity of interaction of the PH domains for phosphoinositide lipids using either a “protein-lipid overlay” assay (FIG. 2) or the more quantitative surface plasmon resonance based approach (Table 2). […]

[2] = target: T1, human PEPP1 PH domain (Ser-Ala-Ser to Arg-Pro-Gln, accession N31123), GST fusion (Homo sapiens, UniProt Q9H4M7); experiment: Surface plasmon resonance (BIACore), GST fusion binding to phosphoinositide in supported lipid monolayer; conditions: supported phosphatidylcholine monolayers, 1:1 binding model, NB, no binding detected, read-out: Apparent Kd
T1 construct: DNA probe corresponding to the N-terminal 15 to 169 residues of PEPP1; made in house; host or cells: E. coli BL21 (pGEX4T-1)
T1 sequence (Q9H4M7 15-169): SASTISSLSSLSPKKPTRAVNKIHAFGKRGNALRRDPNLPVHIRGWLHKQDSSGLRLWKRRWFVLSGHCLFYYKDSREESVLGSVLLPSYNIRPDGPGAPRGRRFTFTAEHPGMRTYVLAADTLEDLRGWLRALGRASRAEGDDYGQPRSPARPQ
Excerpt: (§1) Cloning of PH domains and preparation of expression constructs. All the human and mouse EST's were obtained from the I.M.A.G.E. Consortium and sequenced. The plant EST (accession number T04439) encoding a full length clone of AtPH1 was obtained from the Arabidopsis Biological Research. Centre (Ohio University). The sequence of each EST was verified and the full length PH domain of each EST was amplified by PCR using the Hi-fidelity PCR system with primers designed to incorporate a Kozak site, an initiating ATG codon followed by a myc epitope tag and a stop codon after the PH domain. […]
(§2) Expression of GST-PH domains in E.coli. The pGEX4T-1 constructs encoding the PH domains of FAPP1, AtPH1, PEPP1, LL5α, LL5β, evectin-2 and PH30 were transformed into BL21 E.coli cells and a 0.5 L culture was grown at 37° C. in Luria Broth containing 100 μg/ml ampicillin, until the absorbance at 600 nm was 0.6. […]
(§3) Kinetic analyses of the interactions between the GST PH domain fusions and the polyphosphoinositides were made using surface plasmon resonance based procedures as described previously, with the following modifications. […] Data were analysed using the bimolecular interaction model and the global fitting feature of the BIAevaluation 3 software for several sensorgrams at different protein concentrations. […]

[3] = tested on: PH domains whose lipid binding properties were investigated in FIG. 2 (GST fusions); experiment: Protein-lipid overlay; conditions: data not shown
Experimental: (§4) FIG. 2. Phosphoinositide binding properties of the novel PH domains. The ability of the indicated GST fusion proteins to bind a variety of phosphoinositides was analysed using a protein-lipid overlay. Serial dilutions of the indicated phosphoinositides (100 pmol, 50 pmol, 25 pmol, 12.5 pmol, 6.3 pmol, 3.1 pmol and 1.6 pmol) were spotted onto a nitrocellulose membranes which were then incubated with the purified GST fusion proteins. The membranes were washed and the GST-fusion proteins bound to the membrane by virtue of their interaction with lipid were detected using a GST antibody. A representative of at least 3 separate experiments carried out is shown.
Protein-Lipid overlay. To assess the phosphoinositide binding properties of each PH domain, a protein-lipid overlay assay was performed using the GST fusion proteins as described previously. Briefly, 1 μl of lipid solution containing 1-100 pmol of phospholipids dissolved in a mixture of choroform:methanol:water (1:2:0.8) was spotted onto Hybond-C extra membrane and allowed to dry at room temperature for 1 h. The membrane was blocked in 3% (by mass) fatty acid-free BSA in TBST (50 mM Tris/HCl pH 7.5, 150 mM NaCl and 0.1% Tween-20 (by vol) for lh. The membrane was then incubated overnight at 4° C. with gentle agitation in the same solution containing 0.2 μg/ml of the indicated GST fusion protein. The membranes were washed 6 times over 30 min in TBST and then incubated for 1 h with 1/1000 dilution of anti-GST monoclonal antibody (Sigma). The membranes were washed as before, then incubated for 1 h with 1/5000 dilution of anti-mouse-HRP conjugate (Pierce). Finally, the membranes were washed 12 times over 1 h in TBST and the GST-fusion protein bound to the membrane by virtue of its interaction with phospholipid was detected by enhanced chemiluminescence.

[4] = target: human evectin-2 PH domain (residues 1 to 167), GST fusion (Homo sapiens, UniProt Q96CS7); experiment: Protein-lipid overlay; type: binding; conditions: FIG. 2
human evectin-2 PH domain (residues 1 to 167), GST fusion, sequence (Q96CS7 1-167): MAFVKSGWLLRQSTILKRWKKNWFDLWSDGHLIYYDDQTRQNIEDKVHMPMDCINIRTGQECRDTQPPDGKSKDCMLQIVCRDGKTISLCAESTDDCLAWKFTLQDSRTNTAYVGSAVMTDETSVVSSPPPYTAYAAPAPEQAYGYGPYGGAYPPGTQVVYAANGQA
Experimental: as §4, §1

[5] = target: human TAPP1 C-terminal PH domain (residues 95 to 404), GST fusion (Homo sapiens, UniProt Q9HB21); experiment: Protein-lipid overlay; type: binding; conditions: protein-lipid overlay (FIG. 2)
human TAPP1 C-terminal PH domain (residues 95 to 404), GST fusion, sequence (Q9HB21 95-404): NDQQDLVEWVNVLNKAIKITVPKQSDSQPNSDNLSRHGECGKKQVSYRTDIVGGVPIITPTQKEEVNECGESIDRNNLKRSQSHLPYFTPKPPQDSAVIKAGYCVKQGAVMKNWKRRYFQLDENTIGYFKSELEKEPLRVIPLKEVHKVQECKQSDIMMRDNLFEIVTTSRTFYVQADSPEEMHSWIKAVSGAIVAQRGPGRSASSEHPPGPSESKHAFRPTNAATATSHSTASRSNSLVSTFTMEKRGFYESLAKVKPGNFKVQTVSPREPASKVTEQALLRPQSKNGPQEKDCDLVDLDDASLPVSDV
Experimental: as §4
(§5) FIG. 4. Comparison of the phosphoinositide binding properties of the N-terminal and C-terminal PH domains of TAPP1 and TAPP2. The ability of wild type and mutant forms of full length (FL) and isolated N-terminal (NT) and C-terminal (CT) PH domains of TAPP1 and TAPP2 GST-fusion proteins to interact with phosphoinositides were analysed using a protein-lipid overlay. Serial dilutions of the indicated phosphoinositides (100 pmol, 50 pmol, 25 pmol, 12.5 pmol, 6.3 pmol, 3.1 pmol and 1.6 pmol) were spotted onto a nitrocellulose membrane which was then incubated with the indicated purified GST fusion proteins. The membranes were washed and the GST-fusion proteins bound to the membrane by virtue of their interactions with lipid were detected using a GST antibody. A representative experiment of three is shown. The isolated N-terminal PH domain of human TAPP1 comprises residues 1 to 147, the isolated C-terminal PH domain of human TAPP1 comprises residues 95 to 404, the isolated N-terminal PH domain of mouse TAPP2 comprises residues 1 to 131 and the isolated C-terminal PH of mouse TAPP2 comprises residues 174 to 425.
(§6) Protein-Lipid overlay. To assess the phosphoinositide binding properties of each PH domain, a protein-lipid overlay assay was performed using the GST fusion proteins as described previously. […] The membrane was blocked in 3% (by mass) fatty acid-free BSA in TBST (50 mM Tris/HCl pH 7.5, 150 mM NaCl and 0.1% Tween-20 (by vol) for lh. The membrane was then incubated overnight at 4° C. with gentle agitation in the same solution containing 0.2 μg/ml of the indicated GST fusion protein. The membranes were washed 6 times over 30 min in TBST and then incubated for 1 h with 1/1000 dilution of anti-GST monoclonal antibody (Sigma). The membranes were washed as before, then incubated for 1 h with 1/5000 dilution of anti-mouse-HRP conjugate (Pierce). Finally, the membranes were washed 12 times over 1 h in TBST and the GST-fusion protein bound to the membrane by virtue of its interaction with phospholipid was detected by enhanced chemiluminescence.

[6] = target: T2, mouse TAPP2 C-terminal PH domain (residues 174 to 425), GST fusion (Mus musculus, UniProt Q9ERS5); experiment: Protein-lipid overlay; type: binding; conditions: protein-lipid overlay (FIG. 2)
T2 construct: made in house; host or cells: human embryonic kidney 293 cells (pEBG-2T)
T2 sequence (Q9ERS5 174-425): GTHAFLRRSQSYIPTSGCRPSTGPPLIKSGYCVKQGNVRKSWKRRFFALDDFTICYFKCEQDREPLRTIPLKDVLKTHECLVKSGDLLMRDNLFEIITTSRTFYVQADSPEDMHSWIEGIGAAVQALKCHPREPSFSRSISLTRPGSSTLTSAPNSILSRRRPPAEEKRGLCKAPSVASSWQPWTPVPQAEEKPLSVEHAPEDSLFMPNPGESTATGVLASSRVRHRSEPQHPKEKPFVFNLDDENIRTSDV
Experimental: as §4, §5, §6

GST-GRP1 = conditions: control; cited from earlier work
GST-DAPP1 = conditions: control; cited from earlier work
[7] = target: T3, human FAPP1 PH domain (residues 1 to 99, accession W32183), GST fusion (Homo sapiens, UniProt Q9HB20); experiment: Surface plasmon resonance (BIACore), GST fusion binding to phosphoinositide in supported lipid monolayer; conditions: supported phosphatidylcholine monolayers, 1:1 binding model, NB, no binding detected, read-out: Apparent Kd
T3 construct: made in house; host or cells: E. coli BL21 (pGEX4T-1)
T3 sequence (Q9HB20 1-99, one chain of several): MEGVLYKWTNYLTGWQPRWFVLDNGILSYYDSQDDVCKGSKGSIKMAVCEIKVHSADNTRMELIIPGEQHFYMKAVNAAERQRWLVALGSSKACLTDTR
Excerpt: as §1, §2, §3

[8] = target: human FAPP1 PH domain (residues 1 to 99), GST fusion (Homo sapiens, UniProt Q9HB20); experiment: Protein-lipid overlay; type: binding; conditions: FIG. 2 and Table 2
human FAPP1 PH domain (residues 1 to 99), GST fusion, sequence (Q9HB20 1-99): as the sequence (Q9HB20 1-99, one chain of several) above
Experimental: as §4
(§7) Protein-Lipid overlay. To assess the phosphoinositide binding properties of each PH domain, a protein-lipid overlay assay was performed using the GST fusion proteins as described previously. Briefly, 1 μl of lipid solution containing 1-100 pmol of phospholipids dissolved in a mixture of choroform:methanol:water (1:2:0.8) was spotted onto Hybond-C extra membrane and allowed to dry at room temperature for 1 h. […]

[9] = target: human FAPP2 (accession AF380162), GST fusion (Homo sapiens, UniProt Q96JA3); experiment: Protein-lipid overlay; type: binding; conditions: FIG. 11
human FAPP2 (accession AF380162), GST fusion, sequence (Q96JA3 whole entry, the tested form may be a part): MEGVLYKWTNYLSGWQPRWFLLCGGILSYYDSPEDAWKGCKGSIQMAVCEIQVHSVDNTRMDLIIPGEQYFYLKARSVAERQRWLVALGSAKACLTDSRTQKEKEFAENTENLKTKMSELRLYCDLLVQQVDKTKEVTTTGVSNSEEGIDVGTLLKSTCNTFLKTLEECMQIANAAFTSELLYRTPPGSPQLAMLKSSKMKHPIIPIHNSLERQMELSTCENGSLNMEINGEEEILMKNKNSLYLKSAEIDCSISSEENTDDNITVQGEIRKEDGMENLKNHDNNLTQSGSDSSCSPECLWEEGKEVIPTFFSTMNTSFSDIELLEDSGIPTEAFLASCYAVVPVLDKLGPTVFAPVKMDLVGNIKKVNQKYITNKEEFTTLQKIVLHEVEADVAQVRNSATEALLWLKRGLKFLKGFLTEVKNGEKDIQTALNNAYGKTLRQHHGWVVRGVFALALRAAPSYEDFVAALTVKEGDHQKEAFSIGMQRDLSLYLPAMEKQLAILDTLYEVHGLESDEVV
Experimental: as §4
Methods used are equivalent to those specified in the legend to FIG. 2.
as §7

[10] = tested on: human phospholipase Cδ1 PH domain (residues 20 to 184), GST fusion; conditions: control; cited from earlier work

phosphoinositide binding [1]: did not bind
Molecule: CCCCC/C=C\C/C=C\C/C=C\C/C=C\CCCC(=O)O[C@H](COC(=O)CCCCCCCCCCCCCCCCC)COP(=O)(O)O[C@H]1[C@H](O)[C@@H](OP(=O)(O)O)[C@H](OP(=O)(O)O)[C@@H](OP(=O)(O)O)[C@H]1O [sn-1-stearoyl-2-arachidonyl-D-PtdIns(3,4,5)P3]

Kd [2]: 325 nM
Molecule: CCCCCCCCCCCCCCCC(=O)OC[C@H](COP(=O)(O)O[C@@H]1[C@H](O)[C@H](OP(=O)(O)O)[C@@H](O)[C@H](O)[C@H]1O)OC(=O)CCCCCCCCCCCCCCC [PtdIns3P]

Molecule: phosphatidylserine
lipid binding [3]: None of the PH domains whose lipid binding properties were investigated in FIG. 2, interacted

Molecule: phosphatidylethanolamine
lipid binding [3]: None of the PH domains whose lipid binding properties were investigated in FIG. 2, interacted

phosphoinositide binding [4]: moderate affinity
phosphoinositide binding [1]: did not bind
phosphoinositide binding [5]: did not bind
phosphoinositide binding [6]: did not bind
Molecule: CCCCCCCCCCCCCCCC(=O)OC[C@H](COP(=O)(O)O[C@H]1[C@H](O)[C@@H](OP(=O)(O)O)[C@H](OP(=O)(O)O)[C@@H](OP(=O)(O)O)[C@H]1O)OC(=O)CCCCCCCCCCCCCCC [PtdIns(3,4,5)P3, phospatidylinositol (3,4,5)-trisphosphate]
phosphoinositide binding (GST-GRP1): binds only
phosphoinositide binding (GST-DAPP1): binds

Kd [7]: 20 nM
phosphoinositide binding [8]: only binds
phosphoinositide binding [9]: binds specifically
phosphoinositide binding ([9]; listed as PtdIns-4P): specifically binds
Molecule: CCCCCCCCCCCCCCCC(=O)OC[C@H](COP(=O)(O)O[C@H]1[C@H](O)[C@@H](O)[C@H](OP(=O)(O)O)[C@@H](O)[C@H]1O)OC(=O)CCCCCCCCCCCCCCC [PtdIns4P, phosphoinositol 4-monophosphate]

Molecule: phosphatidylcholine
lipid binding [3]: None of the PH domains whose lipid binding properties were investigated in FIG. 2, interacted

Molecule: phospatidylinositol
lipid binding [3]: None of the PH domains whose lipid binding properties were investigated in FIG. 2, interacted

Molecule: CCCCCCCCCCCCCCCC(=O)OC[C@H](COP(=O)(O)O[C@@H]1[C@H](O)[C@H](O)[C@@H](OP(=O)(O)O)[C@H](OP(=O)(O)O)[C@H]1O)OC(=O)CCCCCCCCCCCCCCC [PtdIns(4,5)P2, phosphatidylinositol 4,5-bisphosphate]
phosphoinositide binding [8]: does not interact
phosphoinositide binding [10]: binds only
